Results as given in patent US12226400B2, “Neuroprotective disruption of Kv2.1/syntaxin interaction by small molecules” (UNIVERSITY OF PITTSBURGH-OF THE COMMONWEALTH SYSTEM OF …, priority 2018, dated 2025).

Columns and labels:
[1] = test system: primary rat cortical neuron cultures; assay: LDH toxicity assay screening for innate toxicity; type: cell-based; conditions: up to 30 μM for 24 hr
[2] = test system: delayed rectifier K+ currents (Kv2.1-mediated) in rat cortical culture neurons; assay: Whole-cell patch clamp of delayed rectifier K+ currents after TBOA; type: cell-based; conditions: Cpd5 incubation alone, 5 hours total
Procedure: Cortical culture electrophysiology. Whole-cell patch-clamp experiments were performed on rat cortical culture neurons prepared as described in the LDH toxicity experiments. The TBOA treatment was reduced in severity in this experiment to limit extensive cell injury that would prevent adequate patch clamp recordings. Prior to recording, coverslips were treated with 50 μM TBOA in MHB for 2 hr. The treatment was terminated with 3×MHB washes and transferring the coverslip to a separate well containing MHB to rest for 2 hr prior to electrophysiology recordings and to allow for the expression of enhanced currents. For cpd5-treated groups, cells were pre-incubated for 1 hr in 10 μM cpd5 prior to the addition of TBOA. Cpd5 was also present during the TBOA and the post-TBOA incubation phases.
Recordings were carried out using 1.5 mm diameter borosilicate glass electrodes (Sutter Instruments) made from a horizontal pipette puller at 5-7 MΩ. The internal solution contains (in mM): 100 K-gluconate, 10 KCl, 1 MgCl2, 1 CaCl2, 10 HEPES, 11 EGTA, 2.2 ATP, 0.33 GTP. The internal solution was further adjusted to pH 7.2 and to 280 mOsm with the addition of sucrose. The pH adjusted (7.2) external solution was composed of the following (in mM): 115 NaCl, 2.5 KCl, 2.0 MgCl2, 10 HEPES, 10 D-glucose, and 0.25 μM TTX. […]

[3] = test system: layer 2/3 corticocallosal neuron AMPAR EPSCs; assay: Slice electrophysiology, evoked AMPAR EPSCs in auditory cortex layer 2/3 corticocallosal neurons; type: cell-based, mouse
Procedure: Stereotaxic injections for electrophysiology. Male or female ICR mice P21-30 (Jackson Laboratory) were anesthetized with 3% isoflurane (1.5% maintenance) and placed on the stereotaxic frame (Kopf). Core body temperature was maintained at ˜37° C. with a heating pad and eyes were protected with ophthalmic ointment. Lidocaine (1%) was injected under the scalp and an incision was made into the skin at the midline to expose the skull. […] A volume of ˜0.12 μl fluorospheres was pressure injected (25 psi, 10 ms duration) from capillary pipettes (Drummond Scientific) with a Picospritzer (Parker-Hannifin). After injection, the pipette was held in the brain for 2 min before slowly withdrawing. The scalp of the mouse was closed with cyanoacrylate adhesive. […] Mice were monitored for signs of postoperative stress and pain.
Slice electrophysiology. […] Pipette capacitance was compensated and series resistance for recordings was lower than 15 MΩ and measured throughout the experiments. […]
To evoke AMPAR EPSCs, auditory cortex layer 2/3 neurons were stimulated locally with an Isoflex stimulator (AMPI), through a glass theta electrode containing ACSF, by a single 0.15 ms duration electrical pulse every 30 sec. AMPAR EPSCs were recorded in voltage clamp mode at −70 mV (peak values were averaged over a 0.3 ms time window). […]

**Q.** `COc1ccc(CNC(=O)Nc2cccc(-c3nc4ccccc4s3)c2)cc1OC` [cpd5, 3-[3-(1,3-benzothiazol-2-yl)phenyl]-1-[(3,4-dimethoxyphenyl)methyl]urea] was tested. Which “innate toxicity (LDH)” value [1] did it give?
**A.** no innate toxicity

**Q.** What about the “innate toxicity (LDH)” value ([1]; listed as Cpd5) of the same compound?
**A.** No neurotoxicity was observed

**Q.** And the “basal K+ current densities” value [2]?
**A.** no significant effects

**Q.** And the “AMPAR EPSCs amplitude normalized to control” value ([3]; 10 μM cpd5, p=0.153)?
**A.** 97.6±0.9%

**Q.** And the “threshold, amplitude or duration of evoked synaptic potentials” value ([3]; Cpd5 10 μM, cortical layer 2/3 projection neurons, acute slices)?
**A.** No significant differences
